These results are taken from PMC5610471, “Use of the KlADH3 promoter for the quantitative production of the murine PDE5A isoforms in the yeast Kluyveromyces lactis” (Microbial Cell Factories, 2017).

One series addresses T1, PDE5A1 (Mus musculus, UniProt Q8CG03).
T1 construct: gene Pde5a
In words: biochemical.

For series [1], the system named is [H][C@@]12COP(=O)(O)O[C@@]1([H])[C@@H](O)[C@H](n1cnc3c(=O)[nH]c(N)nc31)O2. In words: purified protein. The following applies: Mg2+ ([…] MgCl2 in the assay buffer).

The term IC50 denotes the concentration that inhibits the measured activity by half. Higher therefore signals lower potency. The Km is the substrate concentration at which the rate is half of its maximum.

`CCCc1nn(C)c2c(=O)[nH]c(-c3cc(S(=O)(=O)N4CCN(C)CC4)ccc3OCC)nc12` [Sildenafil] came in with an IC50 against PDE5A1 of 4.7 ± 1.1 nM.
Turning to PDE5A1 (Mus musculus), the Km in series [1] is 1.08 ± 0.08 µM.
